The source of these data is article PMC6499816, “Molecular determinants regulating selective binding of autophagy adapters and receptors to ATG8 proteins” (Nature Communications, 2019).

For one assay, the target named is T1, GABARAPL2 (Homo sapiens, UniProt P60520).
T1 construct: insertion of full-length human GABARAP, GABARAP-L1, LC3A, and LC3C, and EcoRI and NotI restrictions sites for cloning of LC3B and GABARAP-L2; GST (followed by 3C protease site) (N); made in house; host or cells: bacteria (E. coli BL21 (DE3) pLysS is stated for the GST-ATG8 proteins of the overlay assay)
T1 sequence (P60520 whole entry): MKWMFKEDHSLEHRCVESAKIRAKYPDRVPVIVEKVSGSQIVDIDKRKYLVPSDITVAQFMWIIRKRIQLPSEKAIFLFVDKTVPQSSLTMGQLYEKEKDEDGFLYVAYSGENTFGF
Description: BLI, LIR peptide binding to GABARAPL2. The settings on record: read-out: Kd (best-fit value). Here is the method:
(§1) For recombinant protein expression in bacteria, a modified plasmid of pGEX-6P2 (GE Healthcare) (referred to as pAL) containing an N-terminal […] followed by a 3C protease cleavage site was used.
(§2) Expression was induced by the addition of 0.5 mM IPTG at OD600 = 0.6 and cells were incubated at 25 °C overnight or at 37 °C for 5 h. Harvested cells were lysed in 50 mM Tris-HCl, pH 8.0, 500 mM NaCl, 0.1% Triton X-100, 0.4 mM 4-(2-aminoethyl)-benzenesulfonylfluoride HCl (AEBSF), and 15 µg/ml benzamidine. Fusion protein was batch adsorbed onto Glutathione-Sepharose 4B beads (GE Healthcare). After five washes with wash buffer (50 mM Tris, pH 8.0, 250 mM NaCl, 0.4 mM AEBSF, and 15 µg/ml benzamidine), fusion proteins were eluted in 50 mM Tris, pH 8.0, 2 mM L-glutathione reduced, 0.4 mM AEBSF, and 15 µg/ml benzamidine.
(§3) The biosensor tip surface immobilized with a ligand is incubated with an analyte in solution, resulting in an increase in optical thickness at the biosensor tip and a wavelength shift, which is a direct measure of the change in thickness. […] Ligand-loaded SA biosensors were then incubated with different concentrations of ATG8. All binding experiments were performed in solid-black 96-well plates containing 200 μl of solution (25 mM Tris, pH 7.5, 150 mM NaCl, 0.5 mM TCEP, 0.1% Tween-20, 1 mg/ml bovine serum albumin (BSA)) in each well at 25 °C with an agitation speed of 1000 rpm. Each measurement was repeated two to five times.
(§4) Peptides were synthesized using FMOC (fluorenylmethoxycarbonyl) solid-phase peptide chemistry by the Francis Crick Peptide Chemistry Technology Platform and are listed in Supplementary Table 2.
In general terms: In BLI a coated tip is dipped into the sample, and binding shifts an interference pattern.

Another assay concerns the target T2, GABARAPL1 (Homo sapiens, UniProt Q9H0R8).
T2 construct: insertion of full-length human GABARAP, GABARAP-L1, LC3A, and LC3C, and EcoRI and NotI restrictions sites for cloning of LC3B and GABARAP-L2; GST (followed by 3C protease site) (N); made in house; host or cells: bacteria (E. coli BL21 (DE3) pLysS is stated for the GST-ATG8 proteins of the overlay assay)
Description: BLI, LIR peptide binding to GABARAPL1. The procedure:
as §1, §2, §3, §4

A further assay has as its target T3, LC3C (Homo sapiens, UniProt Q9BXW4).
T3 construct: insertion of full-length human GABARAP, GABARAP-L1, LC3A, and LC3C, and EcoRI and NotI restrictions sites for cloning of LC3B and GABARAP-L2; GST (followed by 3C protease site) (N); made in house; host or cells: bacteria (E. coli BL21 (DE3) pLysS is stated for the GST-ATG8 proteins of the overlay assay)
Description: BLI, LIR peptide binding to LC3C. Conditions: read-out: Kd (best-fit value). Here is the method: as §1, §2, §3, §4

For another assay, the target named is T4, GABARAP (Homo sapiens, UniProt O95166).
T4 construct: insertion of full-length human GABARAP, GABARAP-L1, LC3A, and LC3C, and EcoRI and NotI restrictions sites for cloning of LC3B and GABARAP-L2; GST (followed by 3C protease site) (N); made in house; host or cells: bacteria (E. coli BL21 (DE3) pLysS is stated for the GST-ATG8 proteins of the overlay assay)
T4 sequence (O95166 whole entry): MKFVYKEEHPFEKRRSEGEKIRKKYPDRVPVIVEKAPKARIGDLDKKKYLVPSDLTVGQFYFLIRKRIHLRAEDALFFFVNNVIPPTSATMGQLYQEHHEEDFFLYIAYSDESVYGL
Description: BLI, LIR peptide binding to GABARAP. The settings on record: n=2 independent experiments, read-out: Kd (best-fit value). The procedure:
as §1, §2, §3, §4

For the next assay, the target named is T5, LC3A (Homo sapiens, UniProt Q9H492).
T5 construct: insertion of full-length human GABARAP, GABARAP-L1, LC3A, and LC3C, and EcoRI and NotI restrictions sites for cloning of LC3B and GABARAP-L2; GST (followed by 3C protease site) (N); made in house; host or cells: bacteria (E. coli BL21 (DE3) pLysS is stated for the GST-ATG8 proteins of the overlay assay)
Description: Bio-layer interferometry (BLI), LIR peptide binding to LC3A. Conditions: read-out: Kd (best-fit value). Here is the method:
as §1, §2, §3, §4

For a further assay, the target named is T6, LC3B (Homo sapiens, UniProt Q9GZQ8).
T6 construct: insertion of full-length human GABARAP, GABARAP-L1, LC3A, and LC3C, and EcoRI and NotI restrictions sites for cloning of LC3B and GABARAP-L2; GST (followed by 3C protease site) (N); made in house; host or cells: bacteria (E. coli BL21 (DE3) pLysS is stated for the GST-ATG8 proteins of the overlay assay)
Description: BLI, LIR peptide binding to LC3B. The settings on record: read-out: Kd (best-fit value). The procedure: as §1, §2
The biosensor tip surface immobilized with a ligand is incubated with an analyte in solution, resulting in an increase in optical thickness at the biosensor tip and a wavelength shift, which is a direct measure of the change in thickness. […] Ligand-loaded SA biosensors were then incubated with different concentrations of ATG8. […]

The mark [1] stands for this setting: fit of response vs GABARAPL1 concentration (μM), n=2 independent experiments, read-out: Kd (best-fit value).
Where [2] appears, read: fit of response vs GABARAP concentration (μM).
The mark [3] stands for this setting: Fig. 4c, fit of response vs GABARAPL1 concentration, n=2 independent experiments, read-out: Kd (best-fit value).
Setting [4] is: Fig. 4c, fit of response vs GABARAP concentration.

Where two headings read alike, the source gives them in different places. Ends that are not written are not given here.

T2 sequence (Q9H0R8 whole entry): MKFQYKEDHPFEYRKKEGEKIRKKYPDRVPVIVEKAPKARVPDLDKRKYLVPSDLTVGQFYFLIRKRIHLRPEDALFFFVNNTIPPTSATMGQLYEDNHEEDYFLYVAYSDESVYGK
T3 sequence (Q9BXW4 whole entry): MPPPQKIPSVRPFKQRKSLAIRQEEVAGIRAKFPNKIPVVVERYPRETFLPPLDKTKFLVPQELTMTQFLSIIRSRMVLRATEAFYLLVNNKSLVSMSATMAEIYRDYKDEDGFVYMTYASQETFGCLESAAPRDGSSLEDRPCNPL

For the compound `CSCC[C@H](NC(=O)[C@@H](NC(=O)[C@H](Cc1ccccc1)NC(=O)[C@H](CC(=O)O)NC(=O)[C@H](CC(=O)O)NC(=O)[C@@H](NC(=O)[C@@H](N)CC(=O)O)[C@@H](C)O)C(C)C)C(=O)N[C@H](C(=O)N1CCC[C@H]1C(=O)N[C@@H](C)C(=O)N[C@@H](CCC(N)=O)C(=O)N[C@@H](Cc1ccccc1)C(=O)N1CCC[C@H]1C(=O)NCC(=O)N[C@@H](CC(=O)O)C(=O)N[C@@H](CC(C)C)C(=O)N[C@H](C(=O)O)C(C)C)C(C)C` [ULK1 (aa 353-369)], the Kd (in general, the free concentration of one partner at which half of the binding sites on the other are occupied at equilibrium, for simple one-to-one binding) at GABARAPL2 stood at 0.583 µM; at GABARAPL1 (setting [1]), 0.102 µM.
As to DDFVMVPAQFPGDLV [ULK1 (aa 355-369)], the Kd on GABARAPL2 was determined as 2.21 µM; on LC3C, 7.84 µM; on GABARAPL1 (setting [1]) it was 0.243 µM; at GABARAP (setting [2]), 0.288 µM.
Take DSSCDTDDFVMV [ULK1 (aa 349-360)]: the Kd was determined as 2.92 µM at LC3A; 1.09 µM on GABARAPL2; 2.21 µM on LC3C; 0.22 µM at GABARAPL1 (setting [1]); 0.218 µM at GABARAP (setting [2]); 8.47 µM at LC3B.
Take DSSCDTDDFVMVPA [ULK1 (aa 349-362)]: the Kd on LC3A was 9.23 µM; on GABARAPL2 it was 0.712 µM; at LC3C, 2.78 µM; on GABARAPL1 (setting [1]) it was 0.148 µM; on GABARAP (setting [2]) it was 0.174 µM.
As for DSSCDTDDFVMVPAQF [ULK1 (aa 349-364)], the Kd turned out to be 8.37 µM at LC3A, 0.534 µM at GABARAPL2, 2.23 µM on LC3C and 0.161 µM on GABARAPL1 (setting [1]).
In the case of “SQKSDEEDFDIIEDLPLKLTI [PCM1 V1956D/ K1957I/ V1958I]”, the Kd is 4.61 µM at LC3A, 2.35 µM at LC3C, 0.907 µM on GABARAPL1 (setting [3]) and 1.39 µM at GABARAP (setting [4]).
Regarding SQKSDEEDFDKVEDLPLKLTI [PCM1 V1956D], the Kd on GABARAPL1 (setting [3]) was 5.19 µM; at GABARAP (setting [4]), 7.72 µM.
As to SQKSDEEDFVIVEDLPLKLTI [PCM1 K1967I], the Kd was 3.93 µM on LC3A, 0.384 µM at LC3C and 0.131 µM at GABARAPL1 (setting [3]).
As for SQKSDEEDFVKIEDLPLKLTI [PCM1 V1959I], the Kd on GABARAPL2 was found to be 7.58 µM; at LC3C, 6.94 µM; on GABARAPL1 (setting [3]) it was 1.07 µM; at GABARAP (setting [4]), 1.46 µM.
As to SQKSDEEDFVKIEDLPLKLTI [Γ3], the dissociation constant (Kd) on GABARAPL1 (immobilised biotinylated LIR peptide, pH 7.5, 25 °C, mean ± s.d., n = 2–4, pictures print no unit, µM as, read-out: Kd, LIR peptide to GABARAPL1) was found to be 1.1 ± 0.1 µM.
As to SQKSDEEDFVKVEDLALKLTI [PCM1 P1962A], the Kd at GABARAPL2 was 10.5 µM; on LC3C it was 10.8 µM; on GABARAPL1 (setting [3]), 0.879 µM; on GABARAP (setting [4]), 0.994 µM.
For SQKSDEEDFVKVTDLPLKLTI [PCM1 E1959T], the Kd on GABARAPL1 (setting [3]) is 2.89 µM.
For YRPPDDAVFDIITDEELCQIQ [FYCO1 WT], the Kd at LC3A turned out to be 0.778 µM; on LC3C it was 3.04 µM; at GABARAPL1 (setting [3]), 0.9 µM; on GABARAP (setting [4]), 1.73 µM; at LC3B, 1.13 µM.
